{"source": "patent US9375001B1", "about": "“Granular fly bait” (Wellmark International, priority 2012, dated 2016)", "origin": "cited, not measured here", "note": "Where two headings read alike, the source gives them in different places.", "data": [{"smiles": "OC[C@H]1O[C@@](CO)(O[C@H]2O[C@H](CO)[C@@H](O)[C@H](O)[C@H]2O)[C@@H](O)[C@@H]1O", "note": "[Sucrose]", "values": [{"measurement": "Solubility of Sucrose in Water, Sucrose/water", "setting": "50 ° C.", "value": 2.59, "unit": "wt/wt"}, {"measurement": "Solubility of Sucrose in Water, Sucrose/water", "setting": "55 ° C.", "value": 2.73, "unit": "wt/wt"}, {"measurement": "Solubility of Sucrose in Water, Sucrose/water", "setting": "60 ° C.", "value": 2.89, "unit": "wt/wt"}, {"measurement": "Solubility of Sucrose in Water, Sucrose/water", "setting": "65 ° C.", "value": 3.06, "unit": "wt/wt"}, {"measurement": "Solubility of Sucrose in Water, Sucrose/water", "setting": "70 ° C.", "value": 3.25, "unit": "wt/wt"}, {"measurement": "Solubility of Sucrose in Water, Sucrose/water", "setting": "75 ° C.", "value": 3.46, "unit": "wt/wt"}, {"measurement": "Solubility of Sucrose in Water, Sucrose/water", "setting": "80 ° C.", "value": 3.69, "unit": "wt/wt"}, {"measurement": "Solubility of Sucrose in Water, Sucrose/water", "setting": "85 ° C.", "value": 3.94, "unit": "wt/wt"}, {"measurement": "Solubility of Sucrose in Water, Sucrose/water", "setting": "90 ° C.", "value": 4.20, "unit": "wt/wt"}]}]}
